The values that follow come from BindingDB's records for doi:10.7270/Q21R6NZ6 (Emory University, 2008).

In this assay the target is Mothers against decapentaplegic homolog 3 (Homo sapiens, UniProt P84022). In words: blockers of Smad3 complex formation in lysate – cell lysate, secondary confirmation, chemiluminescent ELISA, HEK293 lysate, dose response (AID 1058). A general note: ELISA stands for enzyme-linked immunosorbent assay.
Mothers against decapentaplegic homolog 3, sequence (P84022 whole entry): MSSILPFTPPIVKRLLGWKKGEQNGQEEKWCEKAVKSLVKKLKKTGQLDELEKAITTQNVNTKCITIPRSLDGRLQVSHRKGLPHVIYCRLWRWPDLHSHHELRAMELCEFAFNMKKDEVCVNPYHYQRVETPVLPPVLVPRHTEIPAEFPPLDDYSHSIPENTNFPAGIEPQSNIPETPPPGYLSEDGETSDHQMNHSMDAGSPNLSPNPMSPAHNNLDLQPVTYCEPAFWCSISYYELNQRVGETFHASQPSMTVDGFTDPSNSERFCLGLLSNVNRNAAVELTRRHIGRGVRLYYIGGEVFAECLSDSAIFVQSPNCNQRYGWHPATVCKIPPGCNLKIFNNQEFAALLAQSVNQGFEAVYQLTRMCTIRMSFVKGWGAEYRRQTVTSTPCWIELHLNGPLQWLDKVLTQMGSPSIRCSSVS

Compound `COC(=O)c1ccccc1C1c2ccc(O)c(O)c2OC2C(=O)C(=O)C=CC21` (stereo unspecified) [2-(3,4,5-trihydroxy-6-keto-8a,9-dihydroxanthen-9-yl)benzoic acid methyl ester] showed an IC50 of more than 50 µM.

What is called IC50 is the concentration needed to halve the response being measured. A high value points to a need for much substance.
